Measured values reported in patent US9403800B2, “Compounds for inhibition of cancer cell proliferation” (ChemRegen, Inc., priority 2012, dated 2016).

Key:
[1] = tested on: Wnt transcriptional activity; assay: cell-based Wnt-luciferase reporter assay (SuperTOPFlash); conditions: for inhibition of Wnt transcriptional activity (in words): Wnt-luciferase reporter; for Relative potency for Wnt inhibition: relative to IWR-1, transfected HEK293A cells treated 12 hours, normalized to Renilla
Source text: “Hit” 1 (FIG. 1) was identified as a Wnt inhibitor in a high-throughput screen of a library of 74,000 compounds using a cell-based Wnt-luciferase reporter assay as a readout of Wnt transcriptional activity. […] Wnt transcriptional activity was monitored in HEK-293T cells using a luciferase-based Wnt reporter (SuperTOPFlash) stimulated by Wnt3a conditioned media.
Medicinal chemical refinement of “hit” 1 was undertaken to improve its potency, maintain non-toxicity, increase water solubility and improve bioavailability. The SAR refinement of functional activity of “hit” 1 on the inhibition of the Wnt pathway was determined using a cell-based Wnt-luciferase reporter assay (described above). with Renilla Luciferase was used as a normalization for transfection efficiency. 6-8 hours after transfection, transfected HEK293A cells were treated with 1 and each analog for 12 hours. Both firefly and renilla luciferase activities were measured using a plate reader. A library of compounds was tested to obtain an SAR for 1. Compound 1 and its analogs are synthesized by a two step synthesis, Scheme 1.
Signaling was tested using a standard luciferase response system for canonical Wnt/β-catenin/TCF signaling. Briefly, we used a cell line that had been transfected with a luciferase reporter gene under the control of the response element of a transcription factor that is activated by association with β-catenin and is the target of canonical Wnt signaling.

[2] = chemical stability by HPLC; type: physicochemical; conditions: determined by HPLC
Source text: As observed from the data presented in Table 1, both free bases and salts gave significant Wnt inhibition potency. On the basis of the lipophilic character of many of the analogs, it is likely interaction site on the molecular target has a lipophilic character although polar interactions are apparent. To increase solubility, were possible, hydrochloride salts of the sulfonamides were synthesized. To afford appropriate bioavailability, sulfonamides were synthesized with chemical and metabolic stability in mind.

[3] = pharmacokinetics in rats; conditions: rat, in vivo
[4] = tested on: canonical Wnt target genes, Cyclin D1 (CCND1), Axin2 (AXIN2), and c-Myc (c-MYC); assay: mRNA levels of canonical Wnt target genes in HEK293T and SW480 cells; type: cell-based; conditions: HEK293T and SW480 colorectal cells
[5] = tested on: SW480 colorectal cancer model cell line; assay: SW480 cell proliferation and cell cycle (InCell 1000); type: cell-based, human
Source text: Previous studies have shown that the Wnt signaling pathway drives cellular proliferation of a number of cancers through up-regulation of genes for several proteins crucial for cell division including Cyclin D1, c-Myc, etc. and treatment of cancer cells with 1 or analogs decreases cellular proliferation. Accordingly, we examined the effect of 1 and analogs on cell proliferation of human cancer cell lines. […] The results were confirmed by studying the effects of 1 on SW480 human colon cell cycle determined by cell images captured by InCell 1000.

Row | Compound | Relative potency for Wnt inhibition [1] | also measured
1 | O=C1CCCN1c1ccc(S(=O)(=O)N2CCCC3CCCCC32)cc1 (stereo not shown) [Compound 3, 1-(4-(octahydroquinolin-1(2H)-ylsulfonyl)phenyl)pyrrolidin-2-one] |  | inhibition of Wnt transcriptional activity (in words) [1]: potent inhibition of Wnt
2 | O=C1CCCN1c1ccc(S(=O)(=O)N2CCCc3cc(Cl)ccc32)cc1 [Compound 5, 1-(4-(6-chloro-3,4-dihydroquinolin-1(2H)-ylsulfonyl)phenyl)pyrrolidin-2-one] | ++++ (between 60 to 80% potency compared to IWR-1) | 
3 | O=C1CCCN1c1ccc(S(=O)(=O)N2CCCc3cc(F)ccc32)cc1 [Compound 6, 1-(4-(6-fluoro-3,4-dihydroquinolin-1(2H)-ylsulfonyl)phenyl)pyrrolidin-2-one] | +++ (between 40 to 60% potency compared to IWR-1) | chemical half life [2]: No change
4 | COc1ccc2c(c1)CCCN2S(=O)(=O)c1ccc(N2CCCC2=O)cc1 [Compound 7, 1-(4-(6-methoxy-3,4-dihydroquinolin-1(2H)-ylsulfonyl)phenyl)pyrrolidin-2-one] | ++++ (between 60 to 80% potency compared to IWR-1) | half-life [2]: 37 h
5 | O=C1CCCN1c1ccc(S(=O)(=O)N2CCCc3cc(C(F)(F)F)ccc32)cc1 [Compound 8, 1-(4-(6-(trifluoromethyl)-3,4-dihydroquinolin-1(2H)-ylsulfonyl)phenyl)-pyrrolidin-2-one] | +++ (between 40 to 60% potency compared to IWR-1) | 
6 | CC(C)(C)c1ccc2c(c1)CCCN2S(=O)(=O)c1ccc(N2CCCC2=O)cc1 [Compound 9, 1-(4-(6-tert-butyl-3,4-dihydroquinolin-1(2H)-ylsulfonyl)phenyl)pyrrolidin-2-one] | + (<20% potency compared to compound IWR-1) | 
7 | Cc1ccc2c(c1)N(S(=O)(=O)c1ccc(N3CCCC3=O)cc1)CCC2 [Compound 11, 1-(4-(7-methyl-3,4-dihydroquinolin-1(2H)-ylsulfonyl)phenyl)pyrrolidin-2-one] | ++++ (between 60 to 80% potency compared to IWR-1) | 
8 | O=C1CCCN1c1ccc(S(=O)(=O)N2CCc3ccccc3C2)cc1 [Compound 12, 1-(4-(3,4-dihydroisoquinolin-2(1H)-ylsulfonyl)phenyl)pyrrolidin-2-one] | ++++ (between 60 to 80% potency compared to IWR-1) | 
9 | Cc1ccc2c(c1)CCN(S(=O)(=O)c1ccc(N3CCCC3=O)cc1)C2 [Compound 13, 1-(4-(6-methyl-3,4-dihydroisoquinolin-2(1H)-ylsulfonyl)phenyl)pyrrolidin-2-one] | + (<20% potency compared to compound IWR-1) | 
10 | Cc1ccc2c(c1)CN(S(=O)(=O)c1ccc(N3CCCC3=O)cc1)CC2 [Compound 14, 1-(4-(7-methyl-3,4-dihydroisoquinolin-2(1H)-ylsulfonyl)phenyl)pyrrolidin-2-one] | +++ (between 40 to 60% potency compared to IWR-1) | 
11 | O=C1CCCN1c1ccc(S(=O)(=O)Nc2ccccc2)cc1 [Compound 17, 4-(2-oxopyrrolidin-1-yl)-N-phenylbenzenesulfonamide] | + (<20% potency compared to compound IWR-1) | 
12 | COc1ccccc1NS(=O)(=O)c1ccc(N2CCCC2=O)cc1 [Compound 18, N-(2-methoxyphenyl)-4-(2-oxopyrrolidin-1-yl)benzenesulfonamide] | + (<20% potency compared to compound IWR-1) | 
13 | O=C1CCCN1c1ccc(S(=O)(=O)Nc2ccccc2OC(F)(F)F)cc1 [Compound 19, 4-(2-oxopyrrolidin-1-yl)-N-(2-(trifluoromethoxy)phenyl)benzenesulfonamide] | + (<20% potency compared to compound IWR-1) | 
14 | O=C1CCCN1c1ccc(S(=O)(=O)Nc2cccc3ccccc23)cc1 [Compound 20, N-(naphthalen-1-yl)-4-(2-oxopyrrolidin-1-yl)benzenesulfonamide] | + (<20% potency compared to compound IWR-1) | 
15 | O=C1CCCN1c1ccc(S(=O)(=O)N2CCCCC2)cc1 [Compound 21, 1-(4-(piperidin-1-ylsulfonyl)phenyl)pyrrolidin-2-one] | + (<20% potency compared to compound IWR-1) | 
16 | CCC1CCCCN1S(=O)(=O)c1ccc(N2CCCC2=O)cc1 (stereo not shown) [Compound 22, 1-(4-(2-ethylpiperidin-1-ylsulfonyl)phenyl)pyrrolidin-2-one] | + (<20% potency compared to compound IWR-1) | 
17 | CCCN(c1ccccc1)S(=O)(=O)c1ccc(N2CCCC2=O)cc1 [Compound 23, 4-(2-oxopyrrolidin-1-yl)-N-phenyl-N-propylbenzenesulfonamide] | + (<20% potency compared to compound IWR-1) | 
18 | CCCCN(c1ccccc1)S(=O)(=O)c1ccc(N2CCCC2=O)cc1 [Compound 24, N-butyl-4-(2-oxopyrrolidin-1-yl)-N-phenylbenzenesulfonamide] | + (<20% potency compared to compound IWR-1) | 
19 | O=C1CCCCN1c1ccc(S(=O)(=O)N2CCCc3ccccc32)cc1 [Compound 25, 1-(4-(3,4-dihydroquinolin-1(2H)-ylsulfonyl)phenyl)piperidin-2-one] | + (<20% potency compared to compound IWR-1) | inhibition of Wnt transcriptional activity (in words) [1]: did not inhibit Wnt transcriptional activity
20 | CC(=O)N(C)c1ccc(S(=O)(=O)N2CCCc3ccccc32)cc1 [Compound 26, N-(4-(3,4-dihydroquinolin-1(2H)-ylsulfonyl)phenyl)-N-methylacetamide] | + (<20% potency compared to compound IWR-1) | 
21 | COC1CCN(c2ccc(S(=O)(=O)N3CCN(C)c4ccccc43)cc2)C1=O (stereo not shown) [Compound 27, 3-methoxy-1-(4-(4-methyl-3,4-dihydroquinoxalin-1(2H)-ylsulfonyl)phenyl)-pyrrolidin-2-one] | + (<20% potency compared to compound IWR-1) | 
22 | CN1CCN(S(=O)(=O)c2ccc(N3CCC(O)C3=O)cc2)c2ccccc21 (stereo not shown) [Compound 28, 3-hydroxy-1-(4-(4-methyl-3,4-dihydroquinoxalin-1(2H)-ylsulfonyl)phenyl)-pyrrolidin-2-one] | +++ (between 40 to 60% potency compared to IWR-1) | 
23 | CN1CCN(S(=O)(=O)c2ccc(N3CCCC3)cc2)c2ccccc21 [Compound 31, 1-methyl-4-(4-(pyrrolidin-1-yl)phenylsulfonyl)-1,2,3,4-tetrahydroquinoxaline] | ++++ (between 60 to 80% potency compared to IWR-1) | bioavailability [3]: 11%
24 | CN1CCN(S(=O)(=O)c2ccc(N3CCC=N3)cc2)c2ccccc21 [Compound 32, 1-(4-(4,5-dihydro-1H-pyrazol-1-yl)phenylsulfonyl)-4-methyl-1,2,3,4-tetrahydroquinoxaline] | ++++ (between 60 to 80% potency compared to IWR-1) | 
25 | CN1CCN(S(=O)(=O)c2ccc(-n3cccn3)cc2)c2ccccc21 [Compound 33, 1-(4-(1H-pyrazol-1-yl)phenylsulfonyl)-4-methyl-1,2,3,4-tetrahydroquinoxaline] | + (<20% potency compared to compound IWR-1) | 
26 | CN1CCN(S(=O)(=O)c2ccc(N3CCC(O)C3)cc2)c2ccccc21 (stereo not shown) [Compound 34, 1-(4-(4-methyl-3,4-dihydroquinoxalin-1(2H)-ylsulfonyl)phenyl)pyrrolidin-3-ol] | +++ (between 40 to 60% potency compared to IWR-1) | 
27 | CC(=O)c1ccc(NN=C(C(N)=O)C2=NC(C)(C)Cc3ccccc32)cc1 [IQ-1] |  | mRNA levels of canonical Wnt target genes CCND1, AXIN2, c-MYC [4]: enhanced mRNA expression
28 | O=C(Nc1cccc2cccnc12)c1ccc(N2C(=O)[C@@H]3[C@H](C2=O)[C@@H]2C=C[C@H]3C2)cc1 [IWR-1, reference compound] |  | cell cycle distribution ([5]; SW480 cells, InCell 1000 images): did not alter either the rate of SW480 cell proliferation or cell cycle; cancer cell proliferation (in words) ([5]; SW480 colon cancer cell line): did not alter either the rate of SW480 cell proliferation or cell cycle; mRNA levels of canonical Wnt target genes CCND1, AXIN2, c-MYC [4]: decreased mRNA expression
